In patent US8980946B2, “Treatment of obesity using non-daily administration of 6-O-(4-dimethylaminoethoxy) cinnamoyl fumagillol” (Zafgen, Inc., priority 2010, dated 2015):
Values joined by “and” are separate entries in the source; they are usually repeats but may differ in a detail not shown here. Equal entries are not always repeated. Marks after values point to notes of the source that are not given here.

What was measured:
[1] = Visual Analog Scale of hunger in obese patients, twice weekly dosing; assay type: in vivo, human; details: successive twice weekly doses, 0.9 mg/m^2 cohort
Protocol: FIG. 2 depicts visual analogue scale of hunger decline by approximately 50% with body weight change (percent) with twice weekly dosing off 0.1 mg/m^2, 0.3 mg/m^2, and 0.9 mg/m^2 (approximately 1.8 to 2.1 mg) of 6-O-(4-dimethylaminoethoxy)cinnamoyl fumagillol in human patients. Values are means (n=6 per dose level) of changes in fasted Visual Analog Scale scores for each visit day vs. Day 1 for population; p values derived from 2-way ANOVA with Bonferroni post-test comparisons (*, p<0.05; **, p<0.01 vs. placebo).
(§1) The compound was intravenously administered to each patient of a cohort (except for a placebo cohort) twice weekly for 26 days. Each of patients in the three non-placebo cohorts received either 0.1 mg/m^2 (cohort 1); 0.3 mg/m^2 (cohort 2); or 0.9 mg/m^2 (cohort 3) doses of the compound at the time of administration. The trial was conducted under the appropriate government and medical supervision.
(§2) FIG. 1 depicts the body weight change (loss) as a percent before each administration of the twice weekly dose for the 0.9 mg/m^2 cohort. FIG. 2 depicts the Visual Analog Scale reports of hunger decline about 50% following successive biweekly dose administration for the 0.9 mg/m^2 cohort.

Sprague-Dawley male rats = test: Testis toxicity study, subcutaneous administration daily or every third day for 4 weeks; assay type: in vivo, rat
Protocol: A testis toxicity study was performed using daily subcutaneous administration or every other day (every third day) subcutaneous administration in rats. […] Additionally, equivalent total exposure using a 3 mg/kg dose administered every third day was compared as well.
64 Sprague-Dawley male rats within ±20% of mean body weight at initiation of dosing were used for the study. Vehicle control or Compound was administered once daily or every 3rd day for 4 weeks, at a volume of 5 mL/kg, as follows, with groups 1-4 for toxicity and groups 5-8 for toxicokinetic studies.
Upon completion of the study, complete necropsy examinations are performed, and the seminal vesicle, testes, and other organs are weighed at terminal necropsy. Terminal body weights are determined just prior to necropsy for assessment of organ weight changes.

adiponectin = test: Adiponectin levels in the serum of patients undergoing the trial; assay type: in vivo, human; details: with treatment
Protocol: Levels of adiponectin in the serum of patients undergoing the trial were also measured.

[2] = human, in vivo
Protocol: as §1
There was a significant correlation between weight loss of patients and maintained exposure of 0.02 ng/mL of the drug above the level of quantitation of the assay 24 hours after dosing, as shown in FIG. 4 (circled data point is exposure of one poor responder below the level of quantitation of assay). The PK profile at day 26 is representative of steady state (see FIG. 5).

[3] = Injection site tolerability; assay type: in vivo; details: doses up to 6 mg
[4] = Twice weekly intravenous administration to obese patients for 26 days: body weight; assay type: in vivo, human
Protocol: as §1
Table 1 summarizes body weight determination of the 9 patients in the 0.9 mg/m^2 cohort on the day of the first dose and prior to a second dose administered three or four days later.
as §2
All of the subjects of the trial described in Example 1 received doses ranging from 1.8 to 2.2 mg with each administration (given twice weekly). However, weight change was not strictly associated with dose delivered. Instead, response was strongly associated with dose administered per unit excess body weight, as compared to weight change associated with dose delivered per unit body weight.

[5] = rat, s.c., 4 weeks, 1 mg/kg daily
[6] = rat, s.c., 4 weeks, 1 mg/kg every 3rd day
[7] = rat, s.c., 4 weeks, 3 mg/kg every 3rd day
[8] = average of 9 patients, 0.9 mg/m^2 cohort, first dose to before second dose
[9] = individual subject, 0.9 mg/m^2 cohort, first dose to before second dose three or four days later

drug exposure at 24 hours post dose associated with weight loss [2]: above 0.02 ng/mL
AUC (0-24 hr) measured range ([2]; iv, 0.9 mg/m2): 8.57 to 13.6 ng·h/mL
T1/2 (H) λz (terminal) ([2]; iv, 0.9 mg/m2): 5.41±2.82 H
average AUC (0-24 hr) ([2]; iv, 0.9 mg/m2): 10.5 ng·h/mL
average AUC (0-∞) ([2]; iv, 0.9 mg/m2): 11 ng·h/mL
average Cmax ([2]; iv, 0.9 mg/m2): 2.1 ng/mL
terminal half life ([2]; iv, 0.9 mg/m2): 5.4 h
SMILES: CO[C@@H]1[C@H](OC(=O)/C=C/c2ccc(OCCN(C)C)cc2)CC[C@]2(CO2)[C@H]1[C@@]1(C)O[C@@H]1CC=C(C)C.O=C(O)C(=O)O [6-O-(4-dimethylaminoethoxy)cinnamoyl fumagillol oxalate]
Visual Analog Scale hunger decline [1]: about 50%
Visual Analog Scale hunger decline ([1]; listed as 6-O-(4-dimethylaminoethoxy)cinnamoyl fumagillol): approximately 50%
Clinical Chemistry findings (Sprague-Dawley male rats; rat, 1 mg/kg Q3D): No findings
Hematology findings (Sprague-Dawley male rats; rat, 1 mg/kg Q3D): No findings
Macroscopic findings (Sprague-Dawley male rats; rat, 1 mg/kg Q3D): No findings
Microscopic findings (Sprague-Dawley male rats; rat, 1 mg/kg Q3D): No findings
Organ weight findings (Sprague-Dawley male rats; rat, 1 mg/kg Q3D): No findings
Clinical Chemistry: Higher albumin/globulin (Sprague-Dawley male rats; rat, 1 mg/kg/day): Higher albumin/globulin (1.12X)
Clinical Chemistry: Higher potassium (Sprague-Dawley male rats; rat, 1 mg/kg/day): Higher potassium (1.2X)
Clinical Chemistry: Reduced Inorg phosphate (Sprague-Dawley male rats; rat, 1 mg/kg/day): Reduced Inorg phosphate (0.96 X)
Clinical Chemistry: Reduced alk phos (Sprague-Dawley male rats; rat, 1 mg/kg/day): Reduced alk phos (0.72X)
Hematology findings (Sprague-Dawley male rats; rat, 1 mg/kg/day): Reduced blood cell counts
Hematology: Basophil (Sprague-Dawley male rats; rat, 1 mg/kg/day): 0.55 X
Hematology: Eosinophil (Sprague-Dawley male rats; rat, 1 mg/kg/day): 0.75 X
Hematology: Large unstained cell (Sprague-Dawley male rats; rat, 1 mg/kg/day): (0.67X)
Hematology: Lymphocyte (Sprague-Dawley male rats; rat, 1 mg/kg/day): 0.65 X
Hematology: Monocyte (Sprague-Dawley male rats; rat, 1 mg/kg/day): 0.79 X
Hematology: Neutrophil (Sprague-Dawley male rats; rat, 1 mg/kg/day): 0.83 X
Hematology: WBC (Sprague-Dawley male rats; rat, 1 mg/kg/day): 0.68 X
Macroscopic findings (Sprague-Dawley male rats; rat, 1 mg/kg/day): Smaller testes and epididymides
Microscopic findings, lymph node (Sprague-Dawley male rats; rat, 1 mg/kg/day): Lymph node atrophy
Microscopic: Germ cell depletion/degeneration (incidence) (Sprague-Dawley male rats; rat, 1 mg/kg/day): Germ cell depletion/degeneration 9/10
Organ weight: Adrenal (Sprague-Dawley male rats; rat, 1 mg/kg/day): (1.24X)
Organ weight: Brain (Sprague-Dawley male rats; rat, 1 mg/kg/day): 1.15 X
Organ weight: Epididymides (Sprague-Dawley male rats; rat, 1 mg/kg/day): 0.88 X
Organ weight: Liver (Sprague-Dawley male rats; rat, 1 mg/kg/day): 0.85 X
Organ weight: Prostate (Sprague-Dawley male rats; rat, 1 mg/kg/day): 0.83 X
Organ weight: Salivary gland (Sprague-Dawley male rats; rat, 1 mg/kg/day): 0.87 X
Organ weight: Seminal vesicle (Sprague-Dawley male rats; rat, 1 mg/kg/day): 0.79 X
Organ weight: Spleen (Sprague-Dawley male rats; rat, 1 mg/kg/day): 0.71 X
Organ weight: Testes (Sprague-Dawley male rats; rat, 1 mg/kg/day): 0.83 X
Organ weight: Thymus (Sprague-Dawley male rats; rat, 1 mg/kg/day): 0.86 X
Organ weight: Thyroid (Sprague-Dawley male rats; rat, 1 mg/kg/day): 0.82 X
overall findings (Sprague-Dawley male rats; rat, 1 mg/kg/day): adverse findings (e.g. blood dyscrasias and/or irreversible testis lesions)
Clinical Chemistry: Higher albumin/globulin (Sprague-Dawley male rats; rat, 3 mg/kg Q3D): (1.09X)
Hematology findings (Sprague-Dawley male rats; rat, 3 mg/kg Q3D): No findings
Macroscopic findings (Sprague-Dawley male rats; rat, 3 mg/kg Q3D): No findings
Microscopic findings (Sprague-Dawley male rats; rat, 3 mg/kg Q3D): No findings
Organ weight findings (Sprague-Dawley male rats; rat, 3 mg/kg Q3D): No findings
animal weight (Sprague-Dawley male rats; rat, 3 mg/kg every three days): reduces animal weight significantly
overall findings (Sprague-Dawley male rats; rat, 3 mg/kg every three days): does not show any significant adverse findings
Epididymides absolute weight (Sprague-Dawley male rats; [5]): 1.130 g
Prostate absolute weight (Sprague-Dawley male rats; [5]): 0.546 g
Seminal Vesicles absolute weight (g) (Sprague-Dawley male rats; [5]): 1.201** g
Testes absolute weight (g) (Sprague-Dawley male rats; [5]): 2.569* g
Thymus absolute weight (Sprague-Dawley male rats; [5]): 0.343 g
Epididymides absolute weight (Sprague-Dawley male rats; [6]): 1.249 g
Prostate absolute weight (Sprague-Dawley male rats; [6]): 0.710 g
Seminal Vesicles absolute weight (Sprague-Dawley male rats; [6]): 1.523 g
Testes absolute weight (Sprague-Dawley male rats; [6]): 3.097 g
Thymus absolute weight (Sprague-Dawley male rats; [6]): 0.421 g
Epididymides absolute weight (Sprague-Dawley male rats; [7]): 1.267 g
Prostate absolute weight (Sprague-Dawley male rats; [7]): 0.663 g
Testes absolute weight (Sprague-Dawley male rats; [7]): 3.273 g
Thymus absolute weight (Sprague-Dawley male rats; [7]): 0.423 g
tissue weight effects (testes and seminal vesicle weights) (Sprague-Dawley male rats; rats administered with less frequent dosing (every third day)): no tissue weight effects
increase of adiponectin concentrations (adiponectin): over 60%
injection site tolerability [3]: acceptable
efficacy (weight loss) ([4]; 0.1 and 0.3 mg/m^2 twice weekly): Lack of efficacy
dose with which maximum efficacy is obtained ([4]; administered biweekly): ~0.02 mg/kg
doses at which weight loss efficacy is obtained ([4]; administered twice weekly): ≥ 0.02 mg/kg
dose at which weight loss plateaus ([4]; administered twice weekly (~1.8 mg dose)): 0.9 mg/m^2
weight loss at follow up check at day 36 ([4]; after twice weekly regimen over 26 days): substantially sustained
Weight Change (%), Average [4, 8]: −0.7%
Weight Change (kg), Average [4, 8]: -0.7 kg
Ending weight (kg), Average ([4]; average of 9 patients, 0.9 mg/m^2 cohort, prior to second dose): 103.9 kg
Weight Change [4, 9]: 0 kg and −0.5 kg and −0.7 kg and 0.2 kg and −0.6 kg and −1.1 kg (2×) and −0.9 kg and −1.9 kg
Weight Change (%) [4, 9]: 0.0% and −0.5% and −0.6% (2×) and 0.2% and −1.1% and −0.9% and −1.9% and −1.0%
Ending weight ([4]; individual subject, 0.9 mg/m^2 cohort, prior to second dose three or four days after first dose): 107.9 kg and 105 kg and 118 kg and 96.2 kg and 95.7 kg and 100.4 kg and 103.7 kg and 100.5 kg and 107.5 kg
dose per kg of excess body weight to be exceeded to see effects ([4]; obese patients, twice weekly): > 40 μg of drug per kg of excess body weight
number of patients showing greater than 3-4 percent body weight loss ([4]; of the 9 subjects at 0.9 mg/m^2, twice weekly, over 26 days of exposure): 7
duration of weight reduction after single administration ([4]; single administration of 0.9 mg/m2 dose): 4 days
